Reference: PubChem BioAssay (NCI)
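1) Cells in 96-well plates. 2) Compound, 48 h, 5 concentrations. 3) Linear interpolation between surrounding doses. 4) Unreached endpoint = highest concentration. At the TGI there is no net growth.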

Tests used:
Assay in all cases: NCI tumour cell line growth inhibition, 48 h
MOLT-4 leukemia = test system: MOLT-4 leukemia
CCRF-CEM leukemia = test system: CCRF-CEM leukemia
MCF7 breast = test system: MCF7 breast
BT-549 breast = test system: BT-549 breast
DU-145 prostate = test system: DU-145 prostate
SK-MEL-2 melanoma = test system: SK-MEL-2 melanoma
SK-MEL-5 melanoma = test system: SK-MEL-5 melanoma
OVCAR-4 ovarian = test system: OVCAR-4 ovarian
COLO 205 colon = test system: COLO 205 colon
K-562 leukemia = test system: K-562 leukemia
SN12C renal = test system: SN12C renal
OVCAR-3 ovarian = test system: OVCAR-3 ovarian
CAKI-1 renal = test system: CAKI-1 renal
OVCAR-8 ovarian = test system: OVCAR-8 ovarian
NCI-H23 lung = test system: NCI-H23 lung
NCI/ADR-RES ovarian = test system: NCI/ADR-RES ovarian
TK-10 renal = test system: TK-10 renal
NCI-H226 lung = test system: NCI-H226 lung
M14 melanoma = test system: M14 melanoma

| SMILES | TGI (MOLT-4 leukemia) | TGI (CCRF-CEM leukemia) | TGI (MCF7 breast) | TGI (BT-549 breast) | TGI (DU-145 prostate) | TGI (SK-MEL-2 melanoma) | TGI (SK-MEL-5 melanoma) | TGI (OVCAR-4 ovarian) | TGI (COLO 205 colon) | TGI (K-562 leukemia) | TGI (SN12C renal) | TGI (OVCAR-3 ovarian) | TGI (CAKI-1 renal) | TGI (OVCAR-8 ovarian) | TGI (NCI-H23 lung) | TGI (NCI/ADR-RES ovarian) | TGI (TK-10 renal) | TGI (NCI-H226 lung) | TGI (M14 melanoma) |
| --- | --- | --- | --- | --- | --- | --- | --- | --- | --- | --- | --- | --- | --- | --- | --- | --- | --- | --- | --- |
| Cc1ccc(NC2=N/C(=C/c3ccccc3)C(Cl)=N2)cc1 | > 100 µM | > 100 µM | > 100 µM | > 100 µM | > 100 µM | > 100 µM | > 100 µM | > 100 µM | > 100 µM | > 100 µM | > 100 µM | > 100 µM | > 100 µM | > 100 µM | > 100 µM | > 100 µM | > 100 µM | > 100 µM | > 100 µM |
| C[Si](C)(OCCS(=O)(=O)O)OC(=C1S(=O)(=O)OCCOS1(=O)=O)c1cccc2ccccc12 | > 100 µM | > 100 µM | > 100 µM | > 100 µM | > 100 µM | > 100 µM | > 100 µM | > 100 µM | > 100 µM | > 100 µM | > 100 µM | > 100 µM | > 100 µM | > 100 µM | > 100 µM | > 100 µM | > 100 µM | > 100 µM | > 100 µM |
| CSc1nc(SC)c2ncn(C3CC(Oc4ccc(C)cc4)C(COc4ccc(C)cc4)O3)c2n1 (stereo not given) |  | > 100 µM | > 100 µM | > 100 µM | > 100 µM | > 100 µM | > 100 µM | > 100 µM | > 100 µM |  | > 100 µM | > 100 µM | > 100 µM | > 100 µM | > 100 µM | > 100 µM | > 100 µM | > 100 µM | > 100 µM |
| COc1cc(Nc2nc3ccc(C(F)(F)F)cc3nc2C(=O)O)cc(OC)c1OC | > 100 µM | > 100 µM | > 100 µM | 37.9 µM | 80.6 µM | 45.3 µM | > 100 µM | 52.6 µM | 34.6 µM | > 100 µM | 38.1 µM | 93.5 µM | 61.7 µM | 72.1 µM | 45.5 µM | 45.5 µM | 62.2 µM | 40.6 µM | 93.3 µM |
| CNC(=O)CN(C)C(=O)CCC(=O)N(C)C | > 100 µM | > 100 µM | > 100 µM | > 100 µM | > 100 µM | > 100 µM | > 100 µM |  | > 100 µM | > 100 µM | > 100 µM | > 100 µM | > 100 µM | > 100 µM | > 100 µM | > 100 µM | > 100 µM | > 100 µM | > 100 µM |
| Nc1nc(Nc2ccccc2)sc1C(=O)c1cccs1 | 43.9 µM | 16.6 µM | 24.2 µM | 35.7 µM | 30.8 µM | 29.6 µM | 15.9 µM | 40.6 µM | 22.7 µM | 55.7 µM | 38.3 µM | > 28.2 µM | 62.3 µM | 78.4 µM | 38.1 µM | 82 µM | 46.8 µM | 39.7 µM | 36.2 µM |
| COC1O[C@H]2[C@H]3[C@@H]1[C@@H](OS(=O)(=O)c1ccc(C)cc1)C(=O)N3C[C@H]2O (stereo not given in full) | > 100 µM |  | > 100 µM | > 100 µM | > 100 µM | > 100 µM | > 100 µM | > 100 µM | > 100 µM | > 100 µM |  | > 100 µM | > 100 µM | > 100 µM | > 100 µM | > 100 µM | > 100 µM | > 100 µM | > 100 µM |
| CCOC(=O)C(NCc1cccc(C(F)(F)F)c1)(NC(=O)CC)C(F)(F)F (stereo not given) | > 100 µM | > 100 µM | > 100 µM | > 100 µM | > 100 µM | > 100 µM | > 100 µM | > 100 µM | > 100 µM | > 100 µM | > 100 µM | > 100 µM | > 100 µM | > 100 µM | > 100 µM | > 100 µM | > 100 µM | > 100 µM | > 100 µM |
| Cc1cc(-c2nc3ccc(F)cc3s2)ccc1N | > 100 µM | > 100 µM | > 100 µM | > 100 µM | > 100 µM | > 100 µM | > 100 µM |  | > 100 µM | > 100 µM | > 100 µM | > 100 µM | > 100 µM | > 100 µM | > 100 µM | > 100 µM | > 100 µM | > 100 µM | > 100 µM |
| Clc1cc(Br)c2c3c(c(Br)cc(Cl)c13)C(Br)=C2Br | 45.6 µM |  | > 100 µM | 78 µM | 90.9 µM | > 100 µM |  | > 100 µM |  | > 100 µM | 44.7 µM | > 100 µM |  | 93 µM |  | 57.8 µM | 46.6 µM | > 100 µM | > 100 µM |
| C#CCCCOc1ncccn1 | > 100 µM |  | > 100 µM | > 100 µM | > 100 µM | > 100 µM | > 100 µM | > 100 µM | > 100 µM | > 100 µM | > 100 µM | > 100 µM | > 100 µM | > 100 µM | > 100 µM | > 100 µM | > 100 µM | > 100 µM | > 100 µM |
| COc1ccc(-n2c(N)c(C#N)c(C#N)c2-c2ccccc2)cc1 | > 100 µM | > 100 µM | > 100 µM | > 100 µM | > 100 µM | > 100 µM | > 100 µM | 93.2 µM | > 100 µM |  | > 100 µM | > 100 µM | > 100 µM | > 100 µM | > 100 µM | > 100 µM | > 100 µM | > 100 µM | > 100 µM |
